# Data taken from patent publication US20260183275A1, “SUBSTITUTED QUINOLONE COMPOUNDS USEFUL AS INHIBITORS OF TLR9” (Bristol-Myers Squibb Company, priority 2022, published 2026).
# Tests used:
# Type in all cases: cell-based
# human TLR9 = molecular target: T1, human TLR9 (Homo sapiens, UniProt Q9NR96); assay: TLR9 inhibition reporter assay (HEK-Blue cells, SEAP reporter); conditions: HEK-Blue cells overexpressing human TLR9; stimulated with ODN2006 5 nM; SEAP read after 22 hour; dose range 0.05 nM-50 μM
# T1 construct: host or cells: HEK-Blue cells
# T1 sequence (Q9NR96 26-1032): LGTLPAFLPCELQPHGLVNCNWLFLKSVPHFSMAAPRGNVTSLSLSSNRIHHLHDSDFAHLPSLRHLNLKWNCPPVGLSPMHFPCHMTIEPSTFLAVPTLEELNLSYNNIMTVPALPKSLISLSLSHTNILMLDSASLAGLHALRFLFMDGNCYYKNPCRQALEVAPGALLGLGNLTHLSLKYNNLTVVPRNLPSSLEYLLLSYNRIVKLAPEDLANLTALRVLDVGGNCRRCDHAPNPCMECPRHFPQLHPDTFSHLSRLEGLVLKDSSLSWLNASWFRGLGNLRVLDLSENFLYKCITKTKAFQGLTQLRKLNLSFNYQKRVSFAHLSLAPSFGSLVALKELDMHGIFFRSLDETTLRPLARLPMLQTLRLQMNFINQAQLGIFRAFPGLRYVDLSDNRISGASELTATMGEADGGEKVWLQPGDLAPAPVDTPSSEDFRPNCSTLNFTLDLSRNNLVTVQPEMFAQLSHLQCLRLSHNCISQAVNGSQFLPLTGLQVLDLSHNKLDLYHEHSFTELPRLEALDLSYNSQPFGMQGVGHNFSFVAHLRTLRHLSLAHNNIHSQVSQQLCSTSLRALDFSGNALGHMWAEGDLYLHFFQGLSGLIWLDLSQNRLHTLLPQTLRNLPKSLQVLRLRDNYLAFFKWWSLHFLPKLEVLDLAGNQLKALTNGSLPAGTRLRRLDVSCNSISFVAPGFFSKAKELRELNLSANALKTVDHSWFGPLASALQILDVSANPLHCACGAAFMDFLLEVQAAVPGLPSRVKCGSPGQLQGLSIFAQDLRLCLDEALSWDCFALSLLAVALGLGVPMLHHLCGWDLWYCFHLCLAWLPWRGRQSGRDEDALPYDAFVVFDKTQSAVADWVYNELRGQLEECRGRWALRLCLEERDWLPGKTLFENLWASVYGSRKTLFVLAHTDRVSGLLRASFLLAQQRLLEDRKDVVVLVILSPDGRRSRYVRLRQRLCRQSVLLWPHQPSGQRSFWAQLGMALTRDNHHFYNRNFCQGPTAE
# Method in brief: (§1)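 HEK-Blue cells with NF-κB/AP-1-driven SEAP pre-treated 30 min with compounds (0.05 nM-50 μM), then stimulated with gardiquimod 7.5 μM (TLR7), R848 15.9 μM (TLR8) or ODN2006 5 nM (TLR9). SEAP read after 22 h at 37° C; % inhibition relative to agonist+DMSO and reference-inhibitor wells.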
# human TLR7 = molecular target: T2, human TLR7 (Homo sapiens, UniProt Q9NYK1); assay: TLR7 inhibition reporter assay (HEK-Blue cells, SEAP reporter); conditions: HEK-Blue cells overexpressing human TLR7; stimulated with gardiquimod 7.5 μM; SEAP read after 22 hour; dose range 0.05 nM-50 μM
# T2 construct: host or cells: HEK-Blue cells
# T2 sequence (Q9NYK1 27-1049): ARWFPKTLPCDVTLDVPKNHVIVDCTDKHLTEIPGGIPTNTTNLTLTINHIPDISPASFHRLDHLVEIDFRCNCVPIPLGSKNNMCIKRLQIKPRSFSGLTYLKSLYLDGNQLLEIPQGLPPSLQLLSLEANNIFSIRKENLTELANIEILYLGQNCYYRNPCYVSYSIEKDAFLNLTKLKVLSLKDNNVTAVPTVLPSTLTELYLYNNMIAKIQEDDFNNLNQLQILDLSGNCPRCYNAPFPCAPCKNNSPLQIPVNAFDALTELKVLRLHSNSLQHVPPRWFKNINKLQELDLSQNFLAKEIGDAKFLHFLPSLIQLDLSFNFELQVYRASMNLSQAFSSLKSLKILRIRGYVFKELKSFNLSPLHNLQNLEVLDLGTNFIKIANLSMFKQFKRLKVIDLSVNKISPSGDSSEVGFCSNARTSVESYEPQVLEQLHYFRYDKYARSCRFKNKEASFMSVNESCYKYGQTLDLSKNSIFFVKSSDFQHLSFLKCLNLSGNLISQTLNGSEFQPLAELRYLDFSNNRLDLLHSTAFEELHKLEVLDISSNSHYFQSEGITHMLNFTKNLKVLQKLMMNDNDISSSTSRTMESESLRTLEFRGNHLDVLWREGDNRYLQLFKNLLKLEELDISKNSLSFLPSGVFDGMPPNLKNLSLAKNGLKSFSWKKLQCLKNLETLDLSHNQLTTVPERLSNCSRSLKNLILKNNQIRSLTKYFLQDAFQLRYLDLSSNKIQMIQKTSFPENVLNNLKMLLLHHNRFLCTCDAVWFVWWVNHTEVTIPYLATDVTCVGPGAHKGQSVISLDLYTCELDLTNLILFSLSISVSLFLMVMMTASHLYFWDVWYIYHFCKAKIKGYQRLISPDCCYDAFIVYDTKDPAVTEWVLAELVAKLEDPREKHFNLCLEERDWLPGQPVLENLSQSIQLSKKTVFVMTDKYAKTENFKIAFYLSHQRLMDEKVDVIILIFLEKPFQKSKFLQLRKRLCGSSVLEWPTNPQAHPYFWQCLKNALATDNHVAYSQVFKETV
# Method in brief: as §1
# human TLR8 = molecular target: T3, human TLR8 (Homo sapiens, UniProt Q9NR97); assay: TLR8 inhibition reporter assay (HEK-Blue cells, SEAP reporter); conditions: HEK-Blue cells overexpressing human TLR8; stimulated with R848 15.9 μM; SEAP read after 22 hour; dose range 0.05 nM-50 μM
# T3 construct: host or cells: HEK-Blue cells
# T3 sequence (Q9NR97 27-1041): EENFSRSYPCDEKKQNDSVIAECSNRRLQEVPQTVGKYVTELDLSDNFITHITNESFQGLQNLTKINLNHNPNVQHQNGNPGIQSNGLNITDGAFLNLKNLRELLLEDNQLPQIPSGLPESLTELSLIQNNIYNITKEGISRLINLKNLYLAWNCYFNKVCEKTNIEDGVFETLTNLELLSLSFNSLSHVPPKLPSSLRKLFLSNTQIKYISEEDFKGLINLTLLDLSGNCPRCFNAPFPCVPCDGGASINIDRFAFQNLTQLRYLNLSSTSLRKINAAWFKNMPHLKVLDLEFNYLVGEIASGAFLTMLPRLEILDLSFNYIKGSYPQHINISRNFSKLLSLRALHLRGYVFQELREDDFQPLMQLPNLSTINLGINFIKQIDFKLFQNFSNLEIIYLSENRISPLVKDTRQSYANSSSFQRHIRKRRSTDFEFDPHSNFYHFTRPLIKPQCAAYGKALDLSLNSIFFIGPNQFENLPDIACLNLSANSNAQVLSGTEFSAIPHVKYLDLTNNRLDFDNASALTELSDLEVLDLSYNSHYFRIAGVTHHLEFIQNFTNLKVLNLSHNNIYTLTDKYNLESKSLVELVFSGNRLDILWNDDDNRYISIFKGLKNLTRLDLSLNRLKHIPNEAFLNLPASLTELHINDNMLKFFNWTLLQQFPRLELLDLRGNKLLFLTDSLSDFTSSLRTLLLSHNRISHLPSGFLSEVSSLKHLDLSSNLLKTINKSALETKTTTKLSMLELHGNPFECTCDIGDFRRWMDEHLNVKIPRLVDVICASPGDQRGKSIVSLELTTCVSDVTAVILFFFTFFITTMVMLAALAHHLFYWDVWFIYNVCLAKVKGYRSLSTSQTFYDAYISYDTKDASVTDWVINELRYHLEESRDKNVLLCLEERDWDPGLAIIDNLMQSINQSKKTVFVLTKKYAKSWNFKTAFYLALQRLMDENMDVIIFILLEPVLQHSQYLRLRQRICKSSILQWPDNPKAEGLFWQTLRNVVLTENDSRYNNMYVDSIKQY
# Method in brief: as §1
SMILES,IC50 (human TLR9) [nM],IC50 (human TLR7) [µM],IC50 (human TLR8) [µM]
"CC(C)N1CCN(c2ccc(-c3ccc4[nH]c(=O)c(-c5cccc(C(F)(F)F)c5)cc4c3)cc2)CC1 [Example 45, 6-{4-[4-(propan-2-yl)piperazin-1-yl]phenyl}-3-[3-(trifluoromethyl)phenyl]-1,2-dihydroquinolin-2-one]",734,≥ 50,≥ 50
"CC(C)N1CCN(c2ccc(-c3ccc4[nH]c(=O)c(-c5cccc(OC(F)(F)F)c5)cc4c3)cc2)CC1 [Example 46, 6-{4-[4-(propan-2-yl)piperazin-1-yl]phenyl}-3-[3-(trifluoromethoxy)phenyl]-1,2-dihydroquinolin-2-one]",781,≥ 50,≥ 50
"CC(C)N1CCN(c2ccc(-c3ccc4[nH]c(=O)c(-c5cccc(F)c5)cc4c3)cc2)CC1 [Example 47, 3-(3-fluorophenyl)-6-{4-[4-(propan-2-yl)piperazin-1-yl]phenyl}-1,2-dihydroquinolin-2-one]",857,8.62,≥ 50
"CC(C)N1CCN(c2ccc(-c3ccc4[nH]c(=O)c(-c5cn(C)c6ccccc56)cc4c3)cc2)CC1 [Example 48, 3-(1-methyl-1H-indol-3-yl)-6-(4-[4-(propan-2-yl)piperazin-1-yl]phenyl}-1,2-dihydroquinolin-2-one]",1160,2.15,6.88
"CNC(=O)Nc1ccc(-c2cc3cc(-c4ccc(N5CCN(C(C)C)CC5)cc4)ccc3[nH]c2=O)cc1 [Example 49, 3-methyl-1-[4-(2-oxo-6-{4-[4-(propan-2-yl)piperazin-1-yl]phenyl}-1,2-dihydroquinolin-3-yl)phenyl]urea]",239,5.42,≥ 50
"CC(C)N1CCN(c2ccc(-c3ccc4c(c3)cc(-c3ccc(NC(=O)c5ccccn5)cc3)c(=O)n4C)cc2)CC1 [Example 50, N-[4-(1-methyl-2-oxo-6-{4-[4-(propan-2-yl)piperazin-1-yl]phenyl}-1,2-dihydroquinolin-3-yl)phenyl]pyridine-2-carboxamide]",242,15.6,≥ 50
"CCC(=O)Nc1ccc(-c2cc3cc(-c4ccc(N5CCN(C(C)C)CC5)cc4)ccc3[nH]c2=O)cc1 [Example 52, N-[4-(2-oxo-6-{4-[4-(propan-2-yl)piperazin-1-yl]phenyl}-1,2-dihydroquinolin-3-yl)phenyl]propanamide]",243,15.1,≥ 50
"CC(C)N1CCN(c2ccc(-c3ccc4[nH]c(=O)c(-c5ccc(C(N)=O)cc5)cc4c3)cc2)CC1 [Example 53, 4-(2-oxo-6-{4-[4-(propan-2-yl)piperazin-1-yl]phenyl}-1,2-dihydroquinolin-3-yl)benzamide]",257,4.52,1.24
"CNC(=O)c1ccc(-c2cc3cc(-c4ccc(N5CCN(C(C)C)CC5)cc4)ccc3[nH]c2=O)cc1 [Example 54, N-methyl-4-(2-oxo-6-{4-[4-(propan-2-yl)piperazin-1-yl]phenyl}-1,2-dihydroquinolin-3-yl)benzamide]",379,13,≥ 50
"CC(C)N1CCN(c2ccc(-c3ccc4[nH]c(=O)c(-c5ccc(N6CCCC6=O)cc5)cc4c3)cc2)CC1 [Example 56, 3-[4-(2-oxopyrrolidin-1-yl)phenyl]-6-{4-[4-(propan-2-yl)piperazin-1-yl]phenyl}-1,2-dihydroquinolin-2-one]",400,5.98,≥ 50

# Results, then the molecule that gave them:
IC50 (human TLR9) [nM],IC50 (human TLR7) [µM],IC50 (human TLR8) [µM],SMILES
553,5.02,≥ 50,"COc1ccc(-c2cc3cc(-c4ccc(N5CCN(C(C)C)CC5)cc4)ccc3[nH]c2=O)cc1OC [Example 43, 3-(3,4-dimethoxyphenyl)-6-{4-[4-(propan-2-yl)piperazin-1-yl]phenyl}-1,2-dihydroquinolin-2-one]"
701,5.61,≥ 50,"CC(C)N1CCN(c2ccc(-c3ccc4[nH]c(=O)c(-c5ccccc5Cl)cc4c3)cc2)CC1 [Example 44, 3-(2-chlorophenyl)-6-{4-[4-(propan-2-yl)piperazin-1-yl]phenyl}-1,2-dihydroquinolin-2-one]"
242,1.34,47,"CC(C)N1CCN(c2ccc(-c3ccc4[nH]c(=O)c(-c5ccc(N(C)C6CN(C)C6)cc5)cc4c3)cc2)CC1 [Example 51, 3-{4-[methyl(1-methylazetidin-3-yl)amino]phenyl}-6-{4-[4-(propan-2-yl)piperazin-1-yl]phenyl}-1,2-dihydroquinolin-2-one]"
382,≥ 50,≥ 50,"CC(C)N1CCN(c2ccc(-c3ccc4[nH]c(=O)c(-c5ccc(C(=O)N6CCOCC6)cc5)cc4c3)cc2)CC1 [Example 55, 3-[4-(morpholine-4-carbonyl)phenyl]-6-{4-[4-(propan-2-yl)piperazin-1-yl]phenyl}-1,2-dihydroquinolin-2-one]"
